Test in all cases: NCI-60 cell line screen, 48 h
Assay [1] deals with ACHN renal.
For assay [2], the system named is DU-145 prostate.
In assay [3] the test system is HOP-92 NSCLC.
For assay [4], the system named is IGROV1 ovarian.
In assay [5] the test system is KM12 colon.
The subject of assay [6] is NCI-H226 lung.
For assay [7], the system named is NCI-H23 lung.
Assay [8] concerns PC-3 prostate.
In assay [9] the test system is RPMI-8226 leukemia.
The subject of assay [10] is SNB-75 CNS.

“And” between values parts separate entries of the source, which are not always exact repeats. Equal entries are not always repeated.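 A five-concentration, 48-hour dose response in 96-well plates underlies each endpoint, interpolated linearly between surrounding concentrations. GI50: concentration for 50% inhibition of growth. TGI is the concentration that stops growth completely.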

For the compound `COC(=O)CCC(=O)NC1=C(NCc2ccccc2)C(=O)c2ccccc2C1=O`, the TGI is over 100 µM in [1]; over 100 µM in [2]; 48.2 µM in assay [3]; 53.7 µM in [4]; over 100 µM in [5]; over 100 µM in assay [6]. Also, the TGI was 64.6 µM in [7], over 100 µM in assay [8], over 100 µM in [9] and over 100 µM in assay [10].

On to `CCC(CON(C)c1ccccc1)(SC)SC`, for which the TGI in assay [1], in assay [2], in assay [3], in assay [4], in assay [5] and in [6] was over 100 µM throughout. Moreover, the TGI in assay [7], in [8], in assay [9] and in assay [10] was over 100 µM each time.

Take `COC(=O)NCCc1[nH]nc2c1C(=O)C=C(N1CCOCC1)C2=O`: the TGI in assay [1], in assay [2], in [3], in assay [4], in assay [5] and in assay [6] was over 100 µM throughout. The TGI in [7], in assay [8], in assay [9] and in assay [10] was over 100 µM each time.

For `O=C1CC2(c3ccccc3)ON=C(c3ccccc3)N2c2ccccc2N1` (stereo unspecified), the TGI in [1] was over 100 µM; in assay [2], over 100 µM; in assay [3], 83.6 µM; in assay [4] it was over 100 µM; in assay [5] it was over 100 µM; in assay [6] it was over 100 µM. The TGI in [7], in [8], in assay [9] and in assay [10] was over 100 µM in each case.

As for `C[C@]12CC[C@H]3[C@@H](CC=C4C[C@@H](N5CCCC5)CC[C@@]43C)[C@@H]1C[C@H](N1CCOCC1)[C@@H]2O`, the TGI in [1], in [2], in [3], in [4], in assay [5] and in [6] was over 100 µM throughout. The TGI in assay [7], in [8], in [9] and in assay [10] was over 100 µM throughout.

In the case of `COc1ccc2c(CCN)c(C(=O)O)[nH]c2c1`, the TGI in assay [1], in assay [2], in assay [3], in [4], in [5] and in assay [6] was over 100 µM in each case. In addition, the TGI in [7], in assay [8], in [9] and in [10] was over 100 µM each time.

For the compound `COC(=O)C1=C(C(=O)OC)C(C(=O)c2ccc(Br)cc2)N2N=C(c3ccc(Cl)cc3)C=CC12` (stereo unspecified), the TGI in assay [1], in [2], in assay [3], in assay [4], in assay [5] and in assay [6] was over 100 µM in each case. The TGI in [7], in [8], in [9] and in assay [10] was over 100 µM each time.

`COC(=O)C1Cc2c(OC)ccc(OC)c2CC(C(=O)OC)C1=O` (stereo unspecified): the TGI in assay [1], in [2], in assay [3], in assay [4], in assay [5] and in assay [6] was over 100 µM throughout. The TGI in [7] was 85.3 µM; in assay [8], over 100 µM; in [9] it was over 100 µM; in assay [10], over 100 µM.

Turning to `Cc1ccsc1/C=N/Nc1nc2ccccc2s1`, the TGI in assay [1] was 30.8 µM; in assay [2] it was over 100 µM; in assay [3] it was 49.5 µM; in assay [4], 23.5 µM; in [5], 74.6 µM; in assay [6] it was 51.9 µM. The TGI in assay [7] is over 100 µM; in assay [8] it was 50.1 µM; in assay [9] it was 72.2 µM; in assay [10], 35.6 µM.

On to `CN(C)CCNC(=O)c1cccc2c(NCCN(C)C)c3ccccc3nc12`, for which the TGI was found to be 9.59 µM in assay [1]; 28.2 µM in [2]; 17.8 µM in assay [3]; 10.8 µM in assay [4]; 11.8 µM in assay [5]; 3.66 µM in assay [6]. In addition, the TGI was 7.03 µM in assay [7], 7.34 µM in assay [8], 7.92 µM in assay [9] and 11.1 µM in [10].

`CC(=O)OC(/C=C/c1ccccc1)P1(=O)N(CC(C)(C)C)[C@@H]2CCCC[C@H]2N1CC(C)(C)C` (stereo partly specified): the TGI in assay [1] was 21.6 µM and 20.3 µM; in assay [2], 23.7 µM and 23.5 µM; in [3], 26.4 µM; in assay [4], 19.6 µM and 19.3 µM; in assay [5], 26.1 µM and 21.4 µM; in assay [6], 21.8 µM and 25.7 µM. Also, the TGI in assay [7] is 20.3 µM and 17.1 µM; in assay [8], 12.1 µM and 10.1 µM; in assay [9] it was 12.1 µM; in assay [10], 12.8 µM and 4.17 µM. In addition, the GI50 in [10] is 3.91 µM and 0.684 µM.

On to `COC(=O)C(Cc1c(C2Nc3ccccc3C2CC(NC(=O)CNC(C)=O)C(=O)OC)[nH]c2ccccc12)NC(=O)CNC(C)=O` (stereo unspecified), for which the TGI in [1], in [2], in assay [3], in [4], in assay [5] and in [6] was over 100 µM throughout. Also, the TGI in [7], in assay [8], in [9] and in assay [10] was over 100 µM throughout.

`Nn1c(COc2cccc(OCc3n[nH]c(=S)n3N)c2)n[nH]c1=S`: the TGI in [1], in assay [2], in [3], in [4], in [5] and in [6] was over 100 µM throughout. Also, the TGI in [7], in assay [8], in assay [9] and in [10] was over 100 µM throughout.

Regarding `COC(=O)/C(=C\Nc1cccc(C)n1)S(=O)(=O)c1ccc(C)cc1`, the TGI in assay [1] was over 100 µM; in assay [2] it was over 100 µM; in assay [3], over 100 µM; in [4], over 100 µM; in assay [5] it was 90.3 µM; in [6] it was over 100 µM. Besides, the TGI in [7], in assay [8], in assay [9] and in assay [10] was over 100 µM each time.

The values above are taken from PubChem BioAssay (NCI).
